Laboratory results reported in PubChem BioAssay AID248 (DTP/NCI, 2004).
“And” between values parts separate entries of the source, which are not always exact repeats. Identical values can stand only once. Toxic doses and inconclusive results are not listed. Cut-off read from the data, not from the text of the source: active = T/C of 150% or more; inactive = T/C below 125%. Peptide text beside a SMILES is read from it. * marks the point of attachment. Cbz = O=C(OCc1ccccc1)*; Bn = c1ccc(C*)cc1

System: L1210 leukemia ip in BDF1 mice, survival T/C
Assay: NCI In Vivo Anticancer Drug Screen. Data for tumor model L1210 Leukemia (intraperitoneal) in B6D2F1 (BDF1) mice
Conditions: endpoint: mean survival time, higher = longer survival
Summary of the method: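 Transplanted-tumor mice were given test agent; controls received vehicle only. Survival readings from the two groups were divided (treated over control).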

[1] = dose: 100.0 mg/kg/injection, schedule: Q04DX002 (ip), vehicle: Klucel (hydroxypropylcellulose) (HPC)
[2] = dose: 200.0 mg/kg/injection, schedule: Q04DX002 (ip), vehicle: Klucel (hydroxypropylcellulose) (HPC)
[3] = dose: 400.0 mg/kg/injection, schedule: Q04DX002 (ip), vehicle: Klucel (hydroxypropylcellulose) (HPC)
[4] = dose: 100.0 mg/kg/injection, schedule: Q04DX003 (ip), vehicle: saline with Tween-80
[5] = dose: 200.0 mg/kg/injection, schedule: Q04DX003 (ip), vehicle: saline with Tween-80
[6] = dose: 400.0 mg/kg/injection, schedule: Q04DX003 (ip), vehicle: saline with Tween-80
[7] = dose: 100.0 mg/kg/injection, schedule: Q01DX009 (ip), vehicle: Klucel (hydroxypropylcellulose) (HPC)
[8] = dose: 200.0 mg/kg/injection, schedule: Q01DX009 (ip), vehicle: Klucel (hydroxypropylcellulose) (HPC)
[9] = dose: 400.0 mg/kg/injection, schedule: Q01DX009 (ip), vehicle: Klucel (hydroxypropylcellulose) (HPC)
[10] = dose: 150.0 mg/kg/injection, schedule: Q01DX001 (ip), vehicle: Klucel (hydroxypropylcellulose) (HPC)
[11] = dose: 300.0 mg/kg/injection, schedule: Q01DX001 (ip), vehicle: Klucel (hydroxypropylcellulose) (HPC)
[12] = dose: 100.0 mg/kg/injection, schedule: Q04DX003 (ip), vehicle: saline
[13] = dose: 200.0 mg/kg/injection, schedule: Q04DX003 (ip), vehicle: saline
[14] = dose: 400.0 mg/kg/injection, schedule: Q04DX003 (ip), vehicle: saline
[15] = dose: 100.0 mg/kg/injection, schedule: Q01DX009 (ip), vehicle: saline with Tween-80
[16] = dose: 200.0 mg/kg/injection, schedule: Q01DX009 (ip), vehicle: saline with Tween-80
[17] = dose: 400.0 mg/kg/injection, schedule: Q01DX009 (ip), vehicle: saline with Tween-80
[18] = dose: 100.0 mg/kg/injection, schedule: Q04DX003 (ip), vehicle: Klucel (hydroxypropylcellulose) (HPC)
[19] = dose: 200.0 mg/kg/injection, schedule: Q04DX003 (ip), vehicle: Klucel (hydroxypropylcellulose) (HPC)
[20] = dose: 400.0 mg/kg/injection, schedule: Q04DX003 (ip), vehicle: Klucel (hydroxypropylcellulose) (HPC)

Measured: T/C

O=C(CNC(=O)c1ccc(C(=O)NCC(=O)Nc2ccc(C3=NCCCN3)cc2)cc1)Nc1ccc(C2=NCCCN2)cc1
inactive: dose: 0.62 mg/kg/injection, schedule: Q01DX015 (ip), vehicle: methylcellulose (MC) 101 % of control | dose: 1.25 mg/kg/injection, schedule: Q01DX009 (ip), vehicle: saline 97 % of control | dose: 1.25 mg/kg/injection, schedule: Q01DX015 (ip), vehicle: methylcellulose (MC) 98 % of control | dose: 2.5 mg/kg/injection, schedule: Q01DX009 (ip), vehicle: saline 110 % of control | dose: 2.5 mg/kg/injection, schedule: Q01DX015 (ip), vehicle: methylcellulose (MC) 98 % of control | dose: 3.75 mg/kg/injection, schedule: Q01DX015 (ip), vehicle: methylcellulose (MC) 116 % of control | dose: 10.0 mg/kg/injection, schedule: Q01DX009 (ip), vehicle: saline 113 % of control | dose: 25.0 mg/kg/injection, schedule: Q01DX001 (ip), vehicle: methylcellulose (MC) 106 % of control | dose: 50.0 mg/kg/injection, schedule: Q01DX001 (ip), vehicle: methylcellulose (MC) 113 % of control | dose: 120.0 mg/kg/injection, schedule: Q01DX009 (ip), vehicle: Klucel (hydroxypropylcellulose) (HPC) 115 % of control | dose: 160.0 mg/kg/injection, schedule: Q01DX009 (ip), vehicle: Klucel (hydroxypropylcellulose) (HPC) 102 % of control
active: dose: 20.0 mg/kg/injection, schedule: Q01DX015 (ip), vehicle: methylcellulose (MC) 229 % of control | dose: 30.0 mg/kg/injection, schedule: Q01DX015 (ip), vehicle: methylcellulose (MC) 186 % of control | dose: 40.0 mg/kg/injection, schedule: Q01DX009 (ip), vehicle: saline 153 % of control | dose: 40.0 mg/kg/injection, schedule: Q01DX015 (ip), vehicle: methylcellulose (MC) 191 % of control | dose: 60.0 mg/kg/injection, schedule: Q01DX009 (ip), vehicle: Klucel (hydroxypropylcellulose) (HPC) 256 % of control | dose: 80.0 mg/kg/injection, schedule: Q01DX009 (ip), vehicle: Klucel (hydroxypropylcellulose) (HPC) 300 % of control

CCCCCCCC(CC(=O)O)OC(=O)CC(CCCCCCC)OC1OC(C)C(O)C(O)C1OC1OC(C)C(O)C(O)C1O (configuration not stated)
inactive: [1] 102 % of control | [2] 102 % of control

CC12C(=O)c3ccccc3C(=O)C1C1CCCCC1=C1CCCCC12 (configuration not stated)
inactive: [1] 93 % of control | [2] 93 % of control | [3] 101 % of control

Cc1ccccc1C(C)C
inactive: [4] 94 % of control | [5] 98 % of control | [6] 91 % of control

COc1cc2c(cc1OC)C13CCN4C=C5CCOC6CC(=O)N2C1C6C5CC43 (configuration not stated)
inactive: dose: 75.0 mg/kg/injection, schedule: Q01DX001 (ip), vehicle: other 96 % of control

Cc1nn(C)c(Cl)c1[N+](=O)[O-]
inactive: [7] 102 % of control | [1] 102 % of control | [8] 97 % of control | [2] 91 % of control | [9] 100 % of control | [3] 94 % of control

c1ccc2c(c1)ccc1cc3c4ccccc4c4ccccc4c3cc12
inactive: dose: 50.0 mg/kg/injection, schedule: Q01DX001 (ip), vehicle: carboxymethylcellulose (CMC) 97 % of control | dose: 200.0 mg/kg/injection, schedule: Q01DX001 (ip), vehicle: carboxymethylcellulose (CMC) 90 % of control | dose: 400.0 mg/kg/injection, schedule: Q01DX001 (ip), vehicle: carboxymethylcellulose (CMC) 106 % of control

CCC(=O)C(CC(C)[N+](C)(C)C)(c1ccccc1)c1ccccc1 (configuration not stated)
inactive: dose: 100.0 mg/kg/injection, schedule: Q01DX001 (ip), vehicle: carboxymethylcellulose (CMC) 92 % of control

CCCNC(c1ccccc1)=[N+]1CCCCC1
inactive: dose: 12.5 mg/kg/injection, schedule: Q04DX002 (ip), vehicle: saline 95 % of control | dose: 25.0 mg/kg/injection, schedule: Q04DX002 (ip), vehicle: saline 98 % of control

CCOC(=O)NCCNC(=O)OCC
inactive: dose: 75.0 mg/kg/injection, schedule: Q01DX001 (ip), vehicle: Klucel (hydroxypropylcellulose) (HPC) 105 % of control | [10] 95 % of control | [11] 100 % of control

COc1ccc2c(c1)N(C)CCCC2=O
inactive: [12] 96 % of control | [13] 112 % of control | [14] 87 % of control

CC(=O)c1ccc(Br)c([N+](=O)[O-])c1
inactive: dose: 100.0 mg/kg/injection, schedule: Q01DX001 (ip), vehicle: saline 95 % of control | dose: 200.0 mg/kg/injection, schedule: Q01DX001 (ip), vehicle: saline 98 % of control | dose: 400.0 mg/kg/injection, schedule: Q01DX001 (ip), vehicle: saline 103 % of control

CN(Cc1ccccc1)C(=O)c1ccc(Cl)cc1
inactive: [7] 111 % of control | [1] 101 % of control | [8] 105 % of control | [9] 100 % of control | [3] 89 % of control

CCCCN(C=S)CCCC
inactive: dose: 25.0 mg/kg/injection, schedule: Q04DX002 (ip), vehicle: saline with Tween-80 98 % of control | dose: 50.0 mg/kg/injection, schedule: Q04DX002 (ip), vehicle: saline with Tween-80 95 % of control | dose: 100.0 mg/kg/injection, schedule: Q04DX002 (ip), vehicle: saline with Tween-80 102 % of control | [4] 92 % of control

O=C(Oc1ccccc1[N+](=O)[O-])c1ccccc1
inactive: dose: 100.0 mg/kg/injection, schedule: Q04DX003 (ip), vehicle: other 98 % of control | dose: 200.0 mg/kg/injection, schedule: Q04DX003 (ip), vehicle: other 118 % of control | dose: 400.0 mg/kg/injection, schedule: Q04DX003 (ip), vehicle: other 93 % of control

CCO/C=C1\SC(=S)N(c2ccccc2OC)C1=O
inactive: [15] 102 % of control | [16] 104 % of control | [17] 106 % of control

O=C(O)CCC(=O)Nc1ccc2c(c1)B(O)OC2
inactive: dose: 50.0 mg/kg/injection, schedule: Q04DX003 (ip), vehicle: Klucel (hydroxypropylcellulose) (HPC) 101 % of control | [18] 96 % of control and 90 % of control | [19] 96 % of control | [20] 88 % of control

N#CC1CNCCC1=N (configuration not stated)
inactive: [12] 96 % of control | [13] 96 % of control | [14] 100 % of control

CC1CN=C(c2ccc(NC(=O)Nc3ccc(NC(=O)c4ccc(C5=NCC(C)N5)cc4)cc3)cc2)N1 (configuration not stated)
inactive: dose: 62.5 mg/kg/injection, schedule: Q01DX Z (oral), vehicle: water 97 % of control | dose: 125.0 mg/kg/injection, schedule: Q01DX Z (oral), vehicle: water 101 % of control | dose: 250.0 mg/kg/injection, schedule: Q01DX Z (oral), vehicle: water 100 % of control | dose: 500.0 mg/kg/injection, schedule: Q01DX Z (oral), vehicle: water 105 % of control

Cc1ccc(NC(=O)Nc2cc(S(=O)(=O)O)ccc2Oc2ccccc2Cl)cc1
inactive: dose: 100.0 mg/kg/injection, schedule: Q01DX009 (ip), vehicle: saline sonified 95 % of control | dose: 200.0 mg/kg/injection, schedule: Q01DX009 (ip), vehicle: saline sonified 103 % of control

COc1cccc(/C=C/c2nccc3ccccc23)c1OC
inactive: [7] 90 % of control | [18] 106 % of control | [8] 91 % of control | [19] 98 % of control | [9] 91 % of control | [20] 90 % of control

O=C(COc1ccc(Cl)cc1Cl)Oc1c(Cl)c(Cl)c(Cl)c(Cl)c1Cl
inactive: [15] 88 % of control | [4] 91 % of control | [16] 88 % of control | [5] 92 % of control | [17] 92 % of control | [6] 86 % of control

COC(=O)C(NC(=O)C(CSCc1ccccc1)NC(=O)OCc1ccccc1)C(C)C (configuration not stated) (Cbz-Cys(Bn)-Val-OMe; configuration not given here)
inactive: [18] 95 % of control | [19] 97 % of control | [20] 95 % of control

COc1ccc(OC)c(C2(O)C=C(C)C(=O)C=C2C)c1 (configuration not stated)
inactive: [10] 91 % of control | [11] 91 % of control
